The results in this text go back to US7253286B2, “Nitrogen-containing aromatic derivatives” (Eisai Co., Ltd, priority 2000, dated 2007).

In one assay the test system is Human Umbilical Vein Endothelial Cells (HUVECs). The assay is described as follows: Inhibition against invasive tube formation by vascular endothelial cells in response to stimulation by angiogenic factor mixture. More on the design: key: the number of tubes formed in the absence of the test substance was designated as +++; scored on the 5-level scale of +++, ++, +, +/−, −; scored on the 5-level scale of +++, ++, +, +/−, −; scored on the 5-level scale of +++, ++, +, +/−, −; − was assigned if absolutely no tubes formed. To be noted: test substance 0.01 μM; HUVEC on fibrin gel, EGF/FGF2/VEGF/HGF/TNF-α mixture, 6th day, MTT staining. Format: cell-based. The procedure:
Inhibition Against Invasive Tube Formation by Vascular Endothelial Cells in Response to Stimulation by Angiogenic Factor Mixture
Human Umbilical Vein Endothelial Cells (HUVECs) were isolated according to a reported method (Shinseikagaku Jikken Koza [New Biochemistry Experiment Lectures], “Saibo Baiyo Gijutsu” [Cell Culturing Techniques], p.197–202), and were cultured in a 5% CO2 incubator (37° C.) using EGM-2 medium (purchased from Clonetics Corp.) until the cells reached confluency. After adding 0.4 ml of bovine fibrinogen (purchased from Sigma Co.) to the inner well of a Transwell culturing plate (purchased from Coster Inc.), it was hardened with 0.7 units/ml of thrombin (purchased from Sigma Co.). The HUVECs were recovered using trypsin-EDTA and then suspended in human endothelial serum free medium basal growth medium (hereinafter abbreviated as SFM, purchased from GIBCO BRL), and 0.4 ml of the cell suspension (1.4×10^5 cells) was seeded onto the hardened fibrin gel and cultured for approximately 4 hours in a 5% CO2 incubator (37° C.). After 4 hours, there was added to the outer chamber of the Transwell 1.5 ml of an SFM solution containing a mixture of angiogenic factors {10 ng/ml EGF (purchased from GIBCO BRL), 30 ng/ml FGF2 (purchased from GIBCO BRL), 75 ng/ml VEGF (purchased from Wako Pure Chemical Industries Co., Ltd.), 50 ng/ml HGF (purchased from R&D Co.) and 7.5 ng/ml TNF-α (purchased from Genzyme Corp.) [The concentrations of the angiogenic factors differed slightly according to the HUVEC lot.]} and a diluted test substance, and culturing was carried out in a 5% CO2 incubator (37° C.). On the 2nd and 4th days after adding the test substance, the medium was exchanged with 1.5 ml of freshly prepared SFM solution containing the angiogenic factor mixture and test substance. Upon aspirating off the culture supernatant in the inner well on the 6th day after the initial addition of the test substance, 0.4 ml of a 3.3 mg/ml MTT solution dissolved in PBS (purchased from Sigma Corp.) was added and culturing was performed for approximately 1 hour in a 5% CO2 incubator (37° C.). The number of tubes formed in the fibrin gel stained with MTT was scored based on microscope observation. Specifically, the number of tubes formed in the absence of the test substance was designated as +++, while − was assigned if absolutely no tubes formed. The number of tubes formed in the presence of the test substance was scored on the 5-level scale of +++, ++, +, +/−, − to evaluate the strength of inhibition of the test substance.
`CN1CCC(COc2cc3nccc(Oc4ccc(NC(=O)NC5CC5)c(Cl)c4)c3cc2C#N)CC1` [Example 422, N-(2-Chloro-4-((6-cyano-7-((1-methyl-4-piperidyl)methoxy)-4-quinolyl)oxy)phenyl)-N′-cyclopropylurea]: the “number of tubes formed in the fibrin gel (score) at 0.01 μM” value is given as “+”.

Still in this assay, the particulars now being: test substance 0.1 μM; HUVEC on fibrin gel, EGF/FGF2/VEGF/HGF/TNF-α mixture, 6th day, MTT staining.
Turning to `CN1CCC(COc2cc3nccc(Oc4ccc(NC(=O)NC5CC5)c(Cl)c4)c3cc2C#N)CC1` [Example 422, N-(2-Chloro-4-((6-cyano-7-((1-methyl-4-piperidyl)methoxy)-4-quinolyl)oxy)phenyl)-N′-cyclopropylurea], the “number of tubes formed in the fibrin gel (score) at 0.1 μM” value is given as “−”.

The same assay, now with this note: test substance 1.0 μM; HUVEC on fibrin gel, EGF/FGF2/VEGF/HGF/TNF-α mixture, 6th day, MTT staining.
With `CN1CCC(COc2cc3nccc(Oc4ccc(NC(=O)NC5CC5)c(Cl)c4)c3cc2C#N)CC1` [Example 422, N-(2-Chloro-4-((6-cyano-7-((1-methyl-4-piperidyl)methoxy)-4-quinolyl)oxy)phenyl)-N′-cyclopropylurea], the “number of tubes formed in the fibrin gel (score) at 1.0 μM” value is on record as “−”.

In the next assay the target is T1, VEGFR2 (Homo sapiens, UniProt P35968).
T1 construct: coding for the cytoplasmic domain, beginning with lysine 791 and including the termination codon; made in house; host or cells: Sf9 insect cells (baculovirus, pFastBacHis)
T1 sequence (P35968 786-1356 limits assumed): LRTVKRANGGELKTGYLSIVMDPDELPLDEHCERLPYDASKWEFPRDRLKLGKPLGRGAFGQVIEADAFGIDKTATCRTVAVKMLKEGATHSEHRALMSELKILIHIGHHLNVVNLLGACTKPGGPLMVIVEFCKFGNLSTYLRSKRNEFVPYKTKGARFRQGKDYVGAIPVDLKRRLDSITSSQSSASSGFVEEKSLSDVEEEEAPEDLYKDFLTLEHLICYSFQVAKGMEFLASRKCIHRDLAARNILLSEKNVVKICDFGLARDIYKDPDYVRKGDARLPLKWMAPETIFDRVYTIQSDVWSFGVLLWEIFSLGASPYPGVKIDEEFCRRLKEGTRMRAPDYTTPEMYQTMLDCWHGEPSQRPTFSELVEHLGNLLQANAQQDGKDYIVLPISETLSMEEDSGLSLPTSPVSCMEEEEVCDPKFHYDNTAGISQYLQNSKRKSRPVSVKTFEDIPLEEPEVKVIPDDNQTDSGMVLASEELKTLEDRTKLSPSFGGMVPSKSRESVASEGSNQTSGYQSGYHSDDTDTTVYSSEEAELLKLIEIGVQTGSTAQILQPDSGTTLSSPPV
The assay is described as follows: Inhibition against VEGFR2 kinase (receptor tyrosine kinase activity, HTRF method). Format: biochemical. Particulars: His6-VEGFR2 cytoplasmic domain, biotin-poly(GT) substrate, ATP, 30° C. 10 minutes, read-out: IC50 (concentration required for 50% inhibition of VEGFR2 kinase activity). The source says:
Measurement of Inhibition Against Receptor Tyrosine Kinase Activity
This assay is used to determine inhibition of a test substance on tyrosine kinase activity. DNA coding for the cytoplasmic domain of VEGFR2 is obtained by total cDNA synthesis (Edwards M, International Biotechnology Lab 5(3), 19–25, 1987) or by cloning. Expression in an appropriate expression system can produce a polypeptide with tyrosine kinase activity. […] For VEGFR2 (Genbank Accession No. L04947), the 1.7 kb DNA fragment described by Terman et al. (Oncogene, 6(9), 1677–1683, 1991), coding for the cytoplasmic domain, beginning with lysine 791 and including the termination codon, was isolated from a human placental cDNA library (purchased from Clontech Laboratories, Inc.) and cloned in a Baculovirus expression vector (pFastBacHis, purchased from GIBCO BRL) The recombinant construct was transfected into insect cells (Spondoptea frugiperda9 (Sf9)) to prepare a recombinant Baculovirus. (Instructions for preparation and use of recombinant Baculovirus maybe found in standard texts, such as “Bac-To-Bac Baculovirus Expression System” (GIBCO BRL).) The cytoplasmic fragment starting from lysine 398 (FGFR1, Genbank Accession No. X52833), the cytoplasmic fragment starting from lysine 558 (PDGFRβ, Genbank Accession No. M21616) or the cytoplasmic fragment starting from lysine 974 (HGFR, Genbank Accession No. J02958) may be cloned and expressed by the same method for use in assays for other tyrosine kinases. EGFR was purchased from Sigma Co. (Product No. E-2645).
For expression of the VEGFR2 tyrosine kinase, Sf9 cells were infected with the VEGFR2 recombinant virus and collected after 48 hours. The collected cells were rinsed with ice-cooled phosphate buffered saline (PBS) and then resuspended using 20 ml of ice-cooled Lysis Buffer (50 mM Tris-HCl (pH 8.5), 5 mM 2-mercaptoethanol, 100 mM KCl, 1 mM phenylmethylsulfonyl fluoride, 1% (v/v) NP-40) per 1.5×10^8 cells. The suspension was centrifuged at 12,000 rpm for 30 minutes at 4° C. and the supernatant was obtained.
The supernatant was added to a Ni—NTA agarose column (3 ml, purchased from Qiagen) equilibrated with Buffer A {20 mM Tris-HCl (pH 8.5), 5 mM 2-mercaptoethanol, 500 mM KCl, 20 mM imidazole, 10% (v/v) glycerol}. The column was washed with 30 ml of Buffer A, and then with 6 ml of Buffer B {20 mM Tris-HCl (pH 8.5), 5 mM 2-mercaptoethanol, 1M KCl, 10% (v/v) glycerol}, and finally with 6 ml of Buffer A. After washing, it was eluted with 6 ml of Buffer C {20 mM Tris-HCl (pH8.5), 5mM2-mercaptoethanol, 100 mMKCl, 100 mM imidazole, 10% (v/v) glycerol}. The eluate was placed on a dialysis membrane (purchased from Spectrum Laboratories) and dialyzed with a dialysis buffer {20 mM Tris-HCl (pH 7.5), 10% (v/v) glycerol, 1 mM dithiothreitol, 0.1 mM Na3VO4, 0.1 mM EGTA}. After dialysis, it was supplied for SDS-electrophoresis, and the recombinant protein (His6-VEGFR2, cytoplasmic domain of VEGFR2 fused with 6 histidine residues at the N-terminus) detected at a molecular weight of approximately 100 kDa with Coumassie Brilliant Blue staining was assayed using BSA (bovine serum albumin, purchased from Sigma Co.) as the standard substance, and stored at −80° C. until use. Using the same method for the cytoplasmic domains of FGFR1, PDGFRβ and HGFR yielded respective recombinant proteins fused with 6 histidine residues at the N-termini (His6-FGFR1, His6-PDGFRβ or His6-HGFR).
The tyrosine kinase reaction was conducted as follows. […]
In general terms: In TR-FRET formats the signal depends on donor and acceptor labels being close together.
In the case of `COCCOc1cc2nccc(Oc3ccc(NC(=O)Nc4ccc(F)cc4)cc3)c2cc1C#N` [Example 10, N-(4-(6-cyano-7-(2-methoxyethoxy)-4-quinolyl)oxyphenyl)-N′-(4-fluorophenyl)urea], the IC50 stood at 4.9 nM.
Still for that read-out and setting: the same measure for `COCCOc1cc2nccc(Oc3ccc(NC(=O)Nc4cccc(OC)c4)cc3)c2cc1C#N` [Example 14, N-(4-(6-Cyano-7-(2-methoxyethoxy)-4-quinolyl)oxyphenyl)-N′-(3-methoxyphenyl)urea]: 2.7 nM; for `COCCOc1cc2nccc(Oc3ccc(NC(=O)Nc4cccc(O)c4)cc3)c2cc1C#N` [Example 15, N-(4-(6-Cyano-7-(2-methoxyethoxy)-4-quinolyl)oxyphenyl)-N′-(3-hydroxyphenyl)urea]: 8.7 nM; for `COCCOc1cc2nccc(Oc3ccc(NC(=O)Nc4cccc(S(C)(=O)=O)c4)cc3)c2cc1C#N` [Example 21, N-(4-(6-Cyano-7-(2-methoxyethoxy)-4-quinolyl)oxyphenyl)-N′-(3-(methylsulfonyl)phenyl)urea]: 4.3 nM.
As to `CCN(CC)CCCOc1cc2nccc(Oc3ccc(NC(=O)Nc4ccc(F)cc4)cc3)c2cc1C#N` [Example 30, N-(4-(6-Cyano-7-(3-(diethylamino)propoxy)-4-quinolyloxy)phenyl)-N′-(4-fluorophenyl)urea], the IC50 worked out at 22 nM.
For `N#Cc1cc2c(Oc3ccc(NC(=O)Nc4ccc(F)cc4)cc3)ccnc2cc1OCCCN1CCOCC1` [Example 31], the IC50 came out at 17 nM.
Same read-out and setting: under `COCCOc1cc2nccc(Oc3ccc(NC(=O)Nc4cccc(SC)c4)c(F)c3)c2cc1C#N` [Example 33, N-(4-(6-Cyano-7-(2-methoxyethoxy)-4-quinolyl)oxy-2-fluorophenyl)-N′-(3-(methylsulfanyl)phenyl)urea] stands 6.9 nM.
The same measure, in the same setting: under `COCCOc1cc2nccc(Oc3ccc(NC(=O)Nc4cccc(S(C)(=O)=O)c4)c(F)c3)c2cc1C#N` [Example 34, N-(4-(6-Cyano-7-(2-methoxyethoxy)-4-quinolyl)oxy-2-fluorophenyl)-N′-(3-(methylsulfonyl)phenyl)urea] stands 3.4 nM; under `COc1cc2nccc(Oc3ccc(NC(=O)Nc4ccc(F)cc4F)cc3)c2cc1C#N` [Example 36, N-(4-(6-Cyano-7-methoxy-4-quinolyl)oxyphenyl)-N′-(2,4-difluorophenyl)urea], 14 nM.
The same measure, in the same setting: under `COc1cc2nccc(Oc3ccc(NC(=O)Nc4ccccc4)cc3)c2cc1C#N` [Example 37, N-[4-(6-cyano-7-methoxyquinolin-4-yloxy)phenyl]-N′-phenylurea] stands 22 nM; under `N#Cc1cc2c(Oc3ccc(NC(=O)Nc4ccc(F)cc4F)c(F)c3)ccnc2cc1OCCN1CCOCC1` [Example 54, N-(4-(6-Cyano-7-(2-(4-morpholino)ethoxy)-4-quinolyl)oxy-2-fluorophenyl)-N′-(2,4-difluorophenyl)urea], 15 nM; under `COCCOc1cc2nccc(Oc3ccc(NC(=O)Nc4ccccc4)c(F)c3)c2cc1C#N` [Example 99, N-(4-(6-Cyano-7-(2-methoxyethoxy)-4-quinolyl)oxy-2-fluorophenyl)-N′-phenylurea], 8.6 nM.
In the case of `CS(=O)(=O)NCCCOc1cc2nccc(Oc3ccc(NC(=O)Nc4ccc(F)cc4)c(F)c3)c2cc1C#N` [Example 111, N-(3-(6-Cyano-4-(3-fluoro-4-((4-fluoroanilino)carbonyl)aminophenoxy)-7-quinolyl)oxypropyl)methanesulfonamide], the IC50 amounted to 21 nM.
The same measure, in the same setting: under `O=C(Nc1ccc(Oc2ncnc3[nH]c(-c4ccccc4)cc23)cc1)NC1CC1` [Example 173, 1-Cyclopropyl-3-[4-(6-phenyl-7H-pyrrolo[2,3-d]pyrimidin-4-yloxy)phenyl]urea] stands 356 nM; under `CCNC(=O)n1ccc2cc(Oc3ncnc4[nH]c(-c5ccc(O)cc5)cc34)ccc21` [Example 178, 5-[6-(4-Hydroxyphenyl)-7H-pyrrolo[2,3-d]pyrimidin-4-yloxy]indole-1-carboxylic ethylamide], 12 nM.
Same read-out and setting: the same measure for `O=C1CCc2c(Oc3ccc(NC(=O)Nc4ccc(F)cc4)cc3)ccnc2N1` [Example 182, N-(4-Fluorophenyl)-N′-{4-[(7-oxo-5,6,7,8-tetrahydro[1,8]naphthyridin-4-yl)oxy]phenyl}urea]: 71 nM.

A further assay relates to Human Umbilical Vein Endothelial Cells (HUVECs). Briefly: Inhibition against sandwich tube formation by vascular endothelial cells in response to stimulation by VEGF. Format: cell-based. Particulars: HUVEC in collagen gel sandwich, stimulation by VEGF (25 ng/ml VEGF and 10 ng/ml EGF), 4th day, total tube length, read-out: IC50 (concentration required for 50% inhibition of tube formation). Summed up:
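HUVECs were sandwiched between collagen gel layers in serum-free medium with 25 ng/ml VEGF plus 10 ng/ml EGF, with test substance added above the gel at 37 °C. On day 4 tubes were MTT-stained and total tube length measured by image analysis. IC50 is the concentration halving tube length relative to no-compound wells.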
In the case of `CN1CCC(COc2cc3nccc(Oc4ccc(NC(=O)NC5CC5)c(Cl)c4)c3cc2C#N)CC1` [Example 422, N-(2-Chloro-4-((6-cyano-7-((1-methyl-4-piperidyl)methoxy)-4-quinolyl)oxy)phenyl)-N′-cyclopropylurea], the IC50 worked out at 4.8 nM.
